# ChEMBL document CHEMBL5143691, “Lead optimization of pyrido[2,3-d][1]benzazepin-6-one derivatives leading to the discovery of a potent, selective, and orally available human parathyroid hormone receptor 1 (hPTHR1) antagonist (DS69910557)” (Bioorg Med Chem, 2022)
# Key:
# [1] = molecular target: T1, Parathyroid hormone/parathyroid hormone-related peptide receptor (Homo sapiens, UniProt Q03431); experiment: Antagonist activity against human PTHR1 expressed in CHO-K1 cells assessed as reduction in PTH induced cAMP level incubated for 30 mins in presence of IBMX by cAMP assay
# T1 sequence (Q03431 whole entry): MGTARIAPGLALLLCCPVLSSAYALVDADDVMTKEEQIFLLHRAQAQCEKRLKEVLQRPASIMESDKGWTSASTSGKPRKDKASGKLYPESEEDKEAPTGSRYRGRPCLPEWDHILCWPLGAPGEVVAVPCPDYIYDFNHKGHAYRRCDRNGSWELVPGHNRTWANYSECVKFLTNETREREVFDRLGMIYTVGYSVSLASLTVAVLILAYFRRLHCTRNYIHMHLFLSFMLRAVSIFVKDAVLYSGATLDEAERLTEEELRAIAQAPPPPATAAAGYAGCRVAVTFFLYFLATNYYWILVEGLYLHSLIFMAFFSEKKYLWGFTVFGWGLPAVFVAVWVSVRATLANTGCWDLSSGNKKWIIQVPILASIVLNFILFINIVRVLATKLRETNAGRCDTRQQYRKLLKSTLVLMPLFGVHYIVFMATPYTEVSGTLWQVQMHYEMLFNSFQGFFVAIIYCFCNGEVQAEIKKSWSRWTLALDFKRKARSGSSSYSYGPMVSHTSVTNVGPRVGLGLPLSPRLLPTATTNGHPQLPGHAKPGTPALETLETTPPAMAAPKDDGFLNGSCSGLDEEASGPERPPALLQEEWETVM
# [2] = Metabolic stability in rat liver microsomes assessed as compound remaining at 1 uM incubated for 30 mins in presence of NADPH by LC-MS/MS analysis
# [3] = physchem; conditions: JP1 fluid, pH 1.2
# [4] = physchem; conditions: JP2 fluid, pH 6.8
# [5] = molecular target: hERG (KCNH2) (Homo sapiens, UniProt Q12809); experiment: Inhibition of human ERG potassium channel expressed in CHO-K1 cells at 3 uM incubated for 5 mins by patch clamp assay; type: toxicity, cell-based; conditions: CHO-K1 cells expressing human ERG potassium channel
# [6] = molecular target: T2, CYP1A2 (Homo sapiens, UniProt P05177); experiment: Inhibition of CYP1A2 (unknown origin) at 10 uM relative to control; type: ADME
# T2 sequence (P05177 whole entry): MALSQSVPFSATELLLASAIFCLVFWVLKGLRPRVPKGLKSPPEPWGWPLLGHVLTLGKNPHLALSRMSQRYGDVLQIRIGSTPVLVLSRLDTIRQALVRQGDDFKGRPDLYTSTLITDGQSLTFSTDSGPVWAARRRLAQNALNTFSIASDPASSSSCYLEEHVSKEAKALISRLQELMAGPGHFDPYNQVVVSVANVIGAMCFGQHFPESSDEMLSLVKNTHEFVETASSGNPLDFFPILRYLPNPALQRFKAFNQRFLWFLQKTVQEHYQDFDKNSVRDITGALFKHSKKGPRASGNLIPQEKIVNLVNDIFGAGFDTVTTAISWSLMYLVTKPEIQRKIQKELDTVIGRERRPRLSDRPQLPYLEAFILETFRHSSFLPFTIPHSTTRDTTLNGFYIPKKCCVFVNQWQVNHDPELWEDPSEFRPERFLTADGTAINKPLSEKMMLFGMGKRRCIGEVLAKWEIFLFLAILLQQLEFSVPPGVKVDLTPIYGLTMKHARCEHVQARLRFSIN
# [7] = molecular target: T3, CYP2C8 (Homo sapiens, UniProt P10632); experiment: Inhibition of CYP2C8 (unknown origin) at 10 uM relative to control; type: ADME
# T3 sequence (P10632 whole entry): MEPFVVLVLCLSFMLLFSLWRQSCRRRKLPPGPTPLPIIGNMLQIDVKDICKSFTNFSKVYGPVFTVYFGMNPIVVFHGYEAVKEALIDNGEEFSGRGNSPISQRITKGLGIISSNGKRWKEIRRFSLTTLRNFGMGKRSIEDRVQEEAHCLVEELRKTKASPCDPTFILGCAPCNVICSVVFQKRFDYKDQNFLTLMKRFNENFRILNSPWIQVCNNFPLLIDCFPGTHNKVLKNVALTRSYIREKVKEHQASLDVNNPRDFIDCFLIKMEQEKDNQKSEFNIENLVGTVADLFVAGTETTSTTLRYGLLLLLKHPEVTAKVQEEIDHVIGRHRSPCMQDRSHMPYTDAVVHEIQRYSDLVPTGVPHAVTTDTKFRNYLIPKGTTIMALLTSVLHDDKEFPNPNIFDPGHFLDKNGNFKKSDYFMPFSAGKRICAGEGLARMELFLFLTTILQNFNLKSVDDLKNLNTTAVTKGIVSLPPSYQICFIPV
# [8] = molecular target: CYP2C19 (Homo sapiens, UniProt P33261); experiment: Inhibition of CYP2C19 (unknown origin) at 10 uM relative to control; type: ADME
# [9] = molecular target: CYP2D6 (Homo sapiens, UniProt P10635); experiment: Inhibition of CYP2D6 (unknown origin) at 10 uM relative to control; type: ADME
# [10] = AUClast in Sprague-Dawley rat at 5 mg/kg, po by LC-MS/MS analysis; conditions: in vivo
# [11] = Distribution coefficient, log D of compound in 1-octanol and aqueous phosphate buffered saline at pH 7.4 incubated for 30 mins by HPLC-MS analysis; conditions: 1-octanol/phosphate buffered saline
# [12] = in vivo; conditions: Sprague-Dawley, rat, po, 5 mg/kg
# hERG (KCNH2), sequence (Q12809 whole entry): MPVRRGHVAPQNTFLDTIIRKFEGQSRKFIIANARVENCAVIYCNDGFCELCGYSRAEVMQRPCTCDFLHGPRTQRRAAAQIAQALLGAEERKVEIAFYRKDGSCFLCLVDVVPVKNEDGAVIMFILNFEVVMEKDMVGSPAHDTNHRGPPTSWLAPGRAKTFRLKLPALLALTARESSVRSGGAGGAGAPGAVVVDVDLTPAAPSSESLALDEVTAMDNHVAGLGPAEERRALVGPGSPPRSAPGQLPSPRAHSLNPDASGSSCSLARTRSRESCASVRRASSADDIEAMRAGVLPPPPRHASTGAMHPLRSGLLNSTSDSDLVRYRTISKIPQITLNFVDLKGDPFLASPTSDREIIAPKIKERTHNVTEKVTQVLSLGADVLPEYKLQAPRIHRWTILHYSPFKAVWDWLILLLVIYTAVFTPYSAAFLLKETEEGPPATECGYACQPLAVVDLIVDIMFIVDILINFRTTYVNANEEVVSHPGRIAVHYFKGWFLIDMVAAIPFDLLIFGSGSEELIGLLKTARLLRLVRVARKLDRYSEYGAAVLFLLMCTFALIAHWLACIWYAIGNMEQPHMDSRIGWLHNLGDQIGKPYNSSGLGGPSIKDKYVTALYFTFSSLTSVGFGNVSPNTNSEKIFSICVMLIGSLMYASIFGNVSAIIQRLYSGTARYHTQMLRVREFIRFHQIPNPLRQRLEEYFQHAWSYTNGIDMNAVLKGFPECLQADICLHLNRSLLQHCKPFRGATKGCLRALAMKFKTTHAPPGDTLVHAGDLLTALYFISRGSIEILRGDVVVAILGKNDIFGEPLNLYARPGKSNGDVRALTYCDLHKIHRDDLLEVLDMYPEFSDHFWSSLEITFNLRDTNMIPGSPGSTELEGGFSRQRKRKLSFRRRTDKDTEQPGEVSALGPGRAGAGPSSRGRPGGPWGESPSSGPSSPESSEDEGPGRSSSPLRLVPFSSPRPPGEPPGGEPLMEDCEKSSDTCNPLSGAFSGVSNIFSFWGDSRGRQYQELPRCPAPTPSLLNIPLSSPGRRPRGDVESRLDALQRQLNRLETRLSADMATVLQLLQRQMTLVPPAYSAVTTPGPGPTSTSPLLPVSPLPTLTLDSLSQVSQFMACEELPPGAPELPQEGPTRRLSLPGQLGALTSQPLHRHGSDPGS
# CYP2C19, sequence (P33261 whole entry): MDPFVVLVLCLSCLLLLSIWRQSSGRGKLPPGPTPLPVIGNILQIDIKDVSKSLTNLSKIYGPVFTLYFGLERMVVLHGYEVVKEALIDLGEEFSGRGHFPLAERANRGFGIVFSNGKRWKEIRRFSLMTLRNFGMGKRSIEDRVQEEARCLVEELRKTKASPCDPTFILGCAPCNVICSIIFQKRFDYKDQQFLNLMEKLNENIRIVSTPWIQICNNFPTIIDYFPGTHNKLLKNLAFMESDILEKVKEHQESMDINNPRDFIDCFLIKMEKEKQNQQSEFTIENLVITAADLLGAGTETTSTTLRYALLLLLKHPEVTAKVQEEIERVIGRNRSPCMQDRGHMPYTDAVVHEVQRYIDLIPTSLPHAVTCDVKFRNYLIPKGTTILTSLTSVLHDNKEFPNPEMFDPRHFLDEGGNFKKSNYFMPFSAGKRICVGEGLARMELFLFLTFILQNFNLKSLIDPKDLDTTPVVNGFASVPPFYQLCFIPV
# CYP2D6, sequence (P10635 whole entry): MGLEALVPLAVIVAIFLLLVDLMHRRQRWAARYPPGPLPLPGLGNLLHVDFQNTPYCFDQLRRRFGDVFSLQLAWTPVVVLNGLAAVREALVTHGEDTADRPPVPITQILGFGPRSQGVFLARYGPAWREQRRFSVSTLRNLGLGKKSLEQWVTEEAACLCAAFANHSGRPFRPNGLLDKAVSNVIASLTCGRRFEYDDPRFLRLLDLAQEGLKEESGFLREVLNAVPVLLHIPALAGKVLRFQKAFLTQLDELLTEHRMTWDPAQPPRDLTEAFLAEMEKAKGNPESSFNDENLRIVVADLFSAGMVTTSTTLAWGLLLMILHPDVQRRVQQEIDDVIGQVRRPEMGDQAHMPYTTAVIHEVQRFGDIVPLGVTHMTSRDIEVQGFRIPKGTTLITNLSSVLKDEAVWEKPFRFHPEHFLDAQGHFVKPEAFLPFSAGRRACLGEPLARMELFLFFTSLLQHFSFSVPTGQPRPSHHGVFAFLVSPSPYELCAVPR
SMILES,IC50 [1],"remaining at 0.5 h, 1 µM [2]",solubility at 4 h [3],solubility at 4 h [4],"inhibition at 5 min, 3 µM [5]",further results
COC1(CN(C)C2CCOCC2)CN(c2ccc(N3C(=O)C(C)(C)c4ncc(Cl)cc4-c4ccc(Cl)cc43)cc2)C1,780 nM,23%,530 µg/mL,2.5 µg/mL,–,–
CC1(C)C(=O)N(c2ccc(N3CC(CN[C@H]4CC[C@H](C(=O)O)CC4)C3)cc2)c2cc(Cl)ccc2-c2cc(Cl)cnc21,–,–,–,–,0%,–
COC1(CN[C@H]2CC[C@H](C(=O)O)CC2)CN(c2ccc(N3C(=O)C(C)(C)c4ncc(Cl)cc4-c4ccc(Cl)cc43)cc2)C1,–,–,–,–,0%,–
CC1(C)C(=O)N(c2ccc(N3CC(F)(CN[C@H]4CC[C@H](C(=O)O)CC4)C3)cc2)c2cc(Cl)ccc2-c2cc(Cl)cnc21,–,–,–,–,2%,inhibition at 10 µM [6]: < 50%; inhibition at 10 µM [7]: < 50%; inhibition at 10 µM [8]: < 50%; inhibition at 10 µM [9]: < 50%
CC1(C)C(=O)N(c2ccc(N3CC(F)(CNC45CCC(C(=O)O)(CC4)CC5)C3)cc2)c2cc(Cl)ccc2-c2cc(Cl)cnc21,90 nM,97%,–,–,–,AUC(0-t) [10]: 11900 ng·h/mL; logD at 0.5 h [11]: 2.8; Cmax [12]: 900 ng/mL

# More lines, main results first:
IC50 [1],"remaining at 0.5 h, 1 µM [2]",solubility at 4 h [3],solubility at 4 h [4],SMILES,"inhibition at 5 min, 3 µM [5]",further results
840 nM,82%,940 µg/mL,88 µg/mL,CC1(C)C(=O)N(c2ccc(N3CC(O)(CNC4CCOCC4)C3)cc2)c2cc(Cl)ccc2-c2cc(Cl)cnc21,–,–
110 nM,23%,160 µg/mL,0.7 µg/mL,COC(=O)C1(CNC2CCOCC2)CN(c2ccc(N3C(=O)C(C)(C)c4ncc(Cl)cc4-c4ccc(Cl)cc43)cc2)C1,–,–
23000 nM,93%,100 µg/mL,97 µg/mL,CC1(C)C(=O)N(c2ccc(N3CC(CNC4CCOCC4)(C(=O)O)C3)cc2)c2cc(Cl)ccc2-c2cc(Cl)cnc21,–,–
